In patent US7745641B2, “Nitrogen-containing heterocyclic compound” (Kyowa Hakko Kirin Co., Ltd., priority 2005, dated 2010):

Assays:
Aurora = Aurora inhibitory activity using Western blotting method (phosphorylation of histone H3 Ser10); assay type: cell-based, human; conditions: 10 μmol/L, 30 minutes, HCT116 cells accumulated in M phase with Nocodazole
From the text: It is known that Aurora phosphorylates Ser10 of histone H3 in the G2/M phase during the cell cycle [Molecular and Cellular Biology, Vol. 22, p. 874 (2002)]. Consequently, the inhibition of phosphorylation of histone H3 Ser10 in cells was detected by a Western blotting method using human colon cancer cell line HCT116 cells accumulated in the M phase. McCoy's 5A culture medium (GIBCO, Catalogue No. 16600-082) containing 10% bovine fetus serum (GIBCO, Catalogue No. 10099-141) was used for the cultivation of the cells. The HCT116 cells were inoculated and then treated with Nocodazole (Sigma Corporation, Catalogue No. M-1404) so that the cell cycle was accumulated to the M phase. A test compound (final concentration: 10 μmol/L) was added thereto, and the cells were incubated at 37° C. for 30 minutes. The cells were then recovered and washed with a phosphate buffered saline (PBS) once. The cells were suspended in a cell-solubilizing solution (50 mmol/L 2-[4-(2-hydroxyethyl)-1-piperazinyl]ethanesulfonic acid (HEPES) (pH 7.4), 150 mmol/L NaCl, 1 mmol/L ethylenediamine-N,N,N′,N′-tetraacetic acid disodium salt dihydrate (EDTA), 2.5 mmol/L ethylene glycol bis(2-aminoethylether)-N,N,N′,N′-tetraacetic acid (EGTA), 0.1% Tween-20 (Bio-Rad Laboratories Inc., Catalogue No. 170-6531), 10% β-glycerophosphate, 1 mmol/L NaF, 0.1 mmol/L Na3VO4, 1 mmol/L Pefabloc SC (Roche Diagnostics K.K., Catalogue No. 1 429 868), and Complete EDTA-free (Roche Diagnostics K.K., Catalogue No. 1 873 580)}, and the suspension was frozen and thawed. Subsequently, the supernatant obtained by centrifugal separation was used as a cell extraction solution. SDS-PAGE was performed using a 12.5% polyacrylamide gel under the condition that the amount of protein per sample was 30 μg in accordance with the method used by Laemmli et al. The protein was transferred onto a PVDF membrane (Millipore Corporation, Catalogue No. IPVH304F0) by a semi-dry method. The membrane was allowed to react with anti-phosphorylated histone H3 Ser10 antibody (Upstate Inc., Catalogue No. 06-570) used as a primary antibody, and an HRP-labeled anti-rabbit IgG antibody (Amersham biosciences, Catalogue No. NA934V) used as a secondary antibody. Subsequently, […] was detected using a SuperSignal West Pico chemiluminescence substrate (Pierce, Catalogue No. 34077).

HCT116 cells = experiment: Evaluation of Aurora inhibitory activity by analysis of nuclear morphology (enlarged lobed nuclei); assay type: cell-based, human; conditions: concentration in the range of 0.1 to 1 μmol/L, 17 hours contact; optimal concentration different in each compound
Experimental: 281 (2003)]. Consequently, enlarged lobed nuclei-inducibility of test compounds for HCT116 cells was evaluated. McCoy's 5A culture medium (GIBCO, Catalogue No. 16600-082) containing 10% bovine fetus serum (GIBCO, Catalogue No. 10099-141) was used for the cultivation of the cells. HCT116 cells were inoculated and, 24 hours later, each test compound was added thereto.

| Compound | suppression of the phosphorylation of histone H3 Ser10 in HCT116 cells (Aurora) | ability of inducing enlarged lobed nuclei for HCT116 cells (HCT116 cells) | melting point [°C] |
| --- | --- | --- | --- |
| Cl.O=C1NCc2c(Cl)ccc(-c3cc4cc(C(=O)N5CCNCC5)ccc4[nH]3)c21 [Compound 22] | almost completely suppressed | show ability of inducing enlarged lobed nuclei | – |
| O=C1NCc2c(Cl)ccc(-c3cc4cc(C(=O)N5CCN(CCO)CC5)ccc4[nH]3)c21 [Compound 23, 4-Chloro-7-{1H-5-[4-(2-hydroxyethyl)piperazin-1-ylcarbonyl]indol-2-yl}isoindolinone] | – | – | > 295 |
| Cl.Cl.O=C1NCc2c(Cl)ccc(-c3cc4cc(CN5CCN(CCO)CC5)ccc4[nH]3)c21 [Compound 24, 4-Chloro-7-{1H-5-[4-(2-hydroxyethyl)piperazin-1-ylmethyl]indol-2-yl}isoindolinone dihydrochloride] | almost completely suppressed | show ability of inducing enlarged lobed nuclei | – |
| Cl.O=C1NCc2c(Cl)ccc(-c3cc4cc(CN5CCCCC5)ccc4[nH]3)c21 [Compound 29, 4-Chloro-7-[1H-5-(piperidinomethyl)indol-2-yl]isoindolinone hydrochloride] | almost completely suppressed | show ability of inducing enlarged lobed nuclei | – |
| Cl.O=C1NCc2c(Cl)ccc(-c3cc4cc(CNCCO)ccc4[nH]3)c21 [Compound 32, 4-Chloro-7-{1H-5-[(2-hydroxyethyl)aminomethyl]indol-2-yl}isoindolinone hydrochloride] | almost completely suppressed | show ability of inducing enlarged lobed nuclei | – |
| O=C(NCc1ccccc1)c1ccc2[nH]c(-c3ccc(Cl)c4c3C(=O)NC4)cc2c1 [Compound 57, 4-Chloro-7-[1H-5-(benzylaminocarbonyl)indol-2-yl]isoindolinone] | – | – | 246 |
| Cl.O=C1NCc2c(O)ccc(-c3cc4cc(CN5CCCCC5)ccc4[nH]3)c21 [Compound 139, 4-Hydroxy-7-[1H-5-(piperidinomethyl)indol-2-yl]isoindolinone hydrochloride] | almost completely suppressed | show ability of inducing enlarged lobed nuclei | – |
| Cl.O=C1NCc2c(-c3ccco3)ccc(-c3cc4cc(CN5CCCCC5)ccc4[nH]3)c21 [Compound 143, 4-(Furan-2-yl)-7-[1H-5-(piperidinomethyl)indol-2-yl]isoindolinone hydrochloride] | almost completely suppressed | show ability of inducing enlarged lobed nuclei | – |
| Cl.NS(=O)(=O)Oc1ccc(-c2cc3cc(CN4CCCCC4)ccc3[nH]2)c2c1CNC2=O [Compound 231, 4-Sulfamoyloxy-7-[1H-5-(piperidinomethyl)indol-2-yl]isoindolinone hydrochloride] | almost completely suppressed | show ability of inducing enlarged lobed nuclei | – |
| Cl.O=C1NCc2c(C#CCO)ccc(-c3cc4cc(CN5CCCCC5)ccc4[nH]3)c21 [Compound 321, 4-(3-Hydroxy-1-propinyl)-7-[1H-5-(piperidinomethyl)indol-2-yl]isoindolinone hydrochloride] | almost completely suppressed | show ability of inducing enlarged lobed nuclei | – |
| COc1cc(-c2cc3cc(CN(C)C)ccc3[nH]2)c2c(c1O)CNC2=O.Cl [Compound 357, 4-Hydroxy-5-methoxy-7-[1H-5-(dimethylaminomethyl)indol-2-yl]isoindolinone hydrochloride] | almost completely suppressed | show ability of inducing enlarged lobed nuclei | – |
| CNCc1ccc2[nH]c(-c3cc(OC)c(OS(C)(=O)=O)c4c3C(=O)NC4)cc2c1.Cl [Compound 375, 4-Methanesulfonyloxy-5-methoxy-7-[1H-5-(methylaminomethyl)indol-2-yl]isoindolinone hydrochloride] | almost completely suppressed | show ability of inducing enlarged lobed nuclei | – |
| CCN(CC)Cc1ccc2[nH]c(-c3cc(OC)c(OS(C)(=O)=O)c4c3C(=O)NC4)cc2c1.Cl [Compound 376, 4-Methanesulfonyloxy-5-methoxy-7-[1H-5-(diethylaminomethyl)indol-2-yl]isoindolinone hydrochloride] | almost completely suppressed | show ability of inducing enlarged lobed nuclei | – |
| COc1cc(-c2cc3cc(CN4CCCCC4)ccc3[nH]2)c2c(c1OS(=O)(=O)c1ccsc1)CNC2=O.Cl [Compound 407, 4-(3-Thiophenesulfonyloxy)-5-methoxy-7-[1H-5-(piperidinomethyl)indol-2-yl]isoindolinone hydrochloride] | almost completely suppressed | show ability of inducing enlarged lobed nuclei | – |
| COc1cc(-c2cc3cc(CN(C)C)ccc3[nH]2)c2c(c1OS(=O)(=O)c1ccccn1)CNC2=O.Cl [Compound 412, 4-(2-Pyridinesulfonyloxy)-5-methoxy-7-[1H-5-(dimethylaminomethyl)indol-2-yl]isoindolinone hydrochloride] | almost completely suppressed | show ability of inducing enlarged lobed nuclei | – |
| COc1cc(-c2cc3cc(CN4CCCC4)ccc3[nH]2)c2c(c1OS(=O)(=O)N(C)C)CNC2=O.Cl [Compound 417, 4-(Dimethylsulfamoyloxy)-5-methoxy-7-[1H-5-(pyrrolidin-1-ylmethyl)indol-2-yl]isoindolinone hydrochloride] | almost completely suppressed | show ability of inducing enlarged lobed nuclei | – |
| CN(C)Cc1ccc2[nH]c(-c3cc(OCCCO)c(Cl)c4c3C(=O)NC4)cc2c1.Cl [Compound 431, 4-Chloro-5-(3-hydroxypropoxy)-7-[1H-5-(dimethylaminomethyl)indol-2-yl]isoindolinone hydrochloride] | almost completely suppressed | show ability of inducing enlarged lobed nuclei | – |
| COCCCNCc1ccc2[nH]c(-c3cc(OC)c(OS(C)(=O)=O)c4c3C(=O)NC4)cc2c1.Cl [Compound 454, 4-Methanesulfonyloxy-5-methoxy-7-[1H-5-(3-methoxypropylaminomethyl)indol-2-yl]isoindolinone hydrochloride] | almost completely suppressed | show ability of inducing enlarged lobed nuclei | – |
| COc1cc(-c2cc3cc(N4CCN(C)CC4)ccc3[nH]2)c2c(c1OS(C)(=O)=O)CNC2=O.Cl.Cl [Compound 457, 4-Methanesulfonyloxy-5-methoxy-7-[1H-5-(4-methylpyperazin-1-yl)indol-2-yl]isoindolinone dihydrochloride] | almost completely suppressed | show ability of inducing enlarged lobed nuclei | – |
